pIC50: −log10 of the molar value.
What was measured:
[1] = molecular target: kainate site (non-NMDA receptor); assay: kainate site binding (London and Coyle); settings: Table 1
AMPA receptors = assay: AMPA receptor binding (Honore et al.); settings: Table 1
mice = assay: maximal electroshock time course in mice, with and without probenecid pretreatment; assay type: in vivo
Protocol: FIG. 1 plots maximal electroshock time course with Compound 1 of the invention, with and without probenecid pretreatment in mice.
The graph is the percent of mice protected versus the time in minutes. The solid circle (.circle-solid.) is the compound from Example 1. In a separate experiment the solid square (.box-solid.) the compound from Example 1 (10 mg/kg, IV) was given to mice (n=5) pretreated with probenecid 30 minutes before the compound.

[2] = molecular target: T1, glycine site of the NMDA receptor (Rattus norvegicus, UniProt P35439); assay: glycine site of NMDA receptor binding (Jones et al.); settings: Table 1
T1 construct: from tissue

Row | SMILES | IC50 KA [1] | pIC50 (AMPA receptors) | effect of probenecid pretreatment on protection against maximal electroshock (mice; 10 mg/kg IV, n=5 mice, probenecid 30 minutes before the compound) | protection against maximal electroshock (in words) (mice; 30 mg/kg IV, 5 mice, percent of mice protected versus time plotted in FIG. 1 only) | pIC50 [2]
1 | Cc1c([N+](=O)[O-])cc2[nH]c(=O)c(=O)n3c2c1CN(C)C(=O)C3 [Example 1, 6-8-Dimethyl-5-nitro-7,8-dihydro-3H-d,8,10a-triaza-cyclo-hepta[de]naphthalene-1,2,9-trione] | 1.55 µM | 6.07 | positively modulated by ion transporter substrates such as probenecid | indicative of the in vivo potency | 6.70
2 | Cc1c([N+](=O)[O-])cc2[nH]c(=O)c(=O)n3c2c1CN(C)C(=O)C3c1ccccc1 (centres unmarked) [Example 2, 6,8-Dimethyl-5-nitro-10-phenyl-7,8-dihdro-3H-3,8,10a-triaza-cyclohepta(de)morphthalene-1,2,9-trione] | 4.9 µM | 5.35 |  |  | 6.22
